{"source": "patent US20160244435A1", "about": "“EXPANDED THERAPEUTIC POTENTIAL IN NITROHETEROARYL ANTIMICROBIALS” (The Regents of the University of California, priority 2013, published 2016)", "key": {"[1]": {"tested_on": "Mz-sensitive (MzS) G. lamblia strain 713", "assay": "Giardia 48 h growth and survival assay (ATP read-out), Mz-sensitive line", "assay_type": "cell-based, Giardia lamblia", "settings": "Giardia duodenalis; sensitive 713 line (MzS cells)"}, "[2]": {"tested_on": "Mz-resistant (MzR) G. lamblia 713 line", "assay": "microbe, parasite or virus in culture", "assay_type": "cell-based, Giardia lamblia"}, "G. lamblia GS/M": {"tested_on": "G. lamblia GS/M", "assay": "Murine Giardia infection model", "assay_type": "in vivo, C57BL/6 mice", "settings": "single oral dose, data not shown"}, "Giardia": {"tested_on": "Giardia", "settings": "cited from earlier work"}, "[3]": {"settings": "regimen not stated or depending on dosing regimens"}}, "note": "Like-named read-outs stand apart in the source and are kept apart here."}
{"smiles": "Cc1ncc([N+](=O)[O-])n1CCO", "note": "[Mz, metronidazole]", "values": [{"measurement": "EC50", "setting": "[1]", "value": 2, "unit": "µM"}, {"measurement": "residual activity in MzR compared to MzS cells, 100%×(EC50 in MzS/EC50 in MzR)", "setting": "[2]; 713 syngeneic pair", "value": 4, "unit": "%"}, {"measurement": "EC50", "setting": "[2]; Giardia duodenalis", "value": 50, "unit": "µM"}, {"measurement": "lowest single dose that eradicates giardiasis in at least half of infected mice", "setting": "G. lamblia GS/M", "value": 100, "unit": "mg/kg"}, {"measurement": "efficacy", "setting": "Giardia; single-dose treatment", "value": "20-60%"}, {"measurement": "efficacy (cases in which effective)", "setting": "Giardia; three daily 250 mg oral doses for 5-10 days", "value": "80-95%"}]}
{"smiles": "CCCSc1ccc2nc(NC(=O)OC)[nH]c2c1", "note": "[albendazole]", "values": [{"measurement": "efficacy", "setting": "Giardia; [3]", "value": "25-90%"}]}
{"smiles": "O=C1OCCN1/N=C/c1ccc([N+](=O)[O-])o1", "note": "[furazolidone]", "values": [{"measurement": "efficacy", "setting": "Giardia; [3]", "value": "80-85%"}]}
{"smiles": "CC(=O)Oc1ccccc1C(=O)Nc1ncc([N+](=O)[O-])s1", "note": "[nitazoxanide]", "values": [{"measurement": "efficacy", "setting": "Giardia; two daily 500 mg doses for three days", "value": "70-80%"}]}
{"smiles": "CCN(CC)CCCC(C)Nc1c2ccc(Cl)cc2nc2ccc(OC)cc12", "note": "(stereo not shown) [quinacrine]", "values": [{"measurement": "efficacy", "setting": "Giardia; [3]", "value": "up to 90%"}]}
